{"source": "patent US20230390275A1", "about": "“APPLICATION OF ESTER GROUP-[…] PR[…] AND METABOLITE THEREOF IN PREPARATION OF DRUG FOR TREATING HEART FAILURE” (CHANGCHUN GENESCIENCE PHARMACEUTICAL CO., LTD., priority 2020, published 2023)", "assay_type_in_all_cases": "in vivo, Sprague Dawley rats", "key": {"heart failure rats [1]": {"system": "heart failure rats", "experiment": "Hemodynamics (heart rate, arterial blood pressure, left ventricular pressure) in myocardial infarction heart failure rats", "set-up": "Dp/dt max / Dp/dt min: unit not given here", "details": "3 mpk p.o. qd for 4 weeks; one day after last dose; Mean ± SEM, N = 7", "experimental": "(§1) • 1. Vehicle (0.5% CMC Na): formulation: 5 g of CMC Na was weighed out, and the volume was made up to 1000 mL with ddwater; the vehicle was obtained by stirring with a stirrer until the CMC Na was dissolved. • 2. EG017: formulation: a proper amount of the sample was weighed out, and a formula amount of the 0.5% CMC Na was added to prepare 1 mg/kg, 3 mg/kg and 10 mg/kg compound; the formulations were obtained by stirring with a stirrer until the sample was dissolved. Administration regimen: one week after animal modeling, sham/myocardial infarction rats were grouped and administered orally once daily for 28 consecutive days in a volume of 10 mL/kg.\n(§2) After adaptive feeding, on the day of the experiment, the animals were anesthetized by intraperitoneal injection of pentobarbital sodium injection (60 mpk), atropine (0.5 mpk) was injected intraperitoneally to eliminate phlegm, and then the trachea was connected with a breathing machine to assist breathing; the chest was cut open from the place between the third rib and the fourth rib and then expanded with a chest expander; the pericardium was torn open, the left anterior descending coronary artery was ligated with 5-0 silk thread, the ribs and skin were sutured, and then the animals were placed on a heat preservation blanket for recovery after operation. The animals in the Sham group were also subjected to the same operation, except that the ligation with silk thread was not performed. After the operation was finished, all the animals are subjected to intramuscular injection of meloxicam (1 mpk) and gentamicin hydrochloride injection (8 mpk) for analgesia and anti-infection. One day before administration, the rats were subjected to cardiac ultrasonography after anesthesia by isoflurane inhalation (1.5%-5% v/v in oxygen), and the ligation was successful if there was no significant contraction of the anterior wall of the left ventricle, the left ventricular cavity was enlarged, and there was a 30% decrease in left ventricular ejection fraction compared to the normal control group. Successfully modeled rats were selected for subsequent experiments (note: ensure that there were 7 animals in each group after modeling, and 7 animals in the sham group). The rats in each group were subjected to intragastric administration of therapeutic agent once daily for four consecutive weeks. During the experiment, the living state of the animals was observed, and the abnormal conditions were recorded; endpoint index detection and sample collection were performed one day after the last dose.\n(§3) One week after the modeling of animals, the isoflurane was used for anesthetizing the rats, the Vevo small animal ultrasonic imaging system was used for checking the function of the left ventricle of the model rats, and successful modeling was determined if the LVFE % was reduced by 30%.\n(§4) Except for the Sham group, the animals were divided into 9 groups according to LVEF % and body weight, 7 rats in each group. […]"}, "heart failure rats [2]": {"system": "heart failure rats", "experiment": "Echocardiography of left ventricular function in myocardial infarction heart failure rats", "details": "3 mpk p.o. qd for 4 weeks; one day after last dose; Mean ± SEM, N = 7", "experimental": "as §1, §2, §3, §4"}, "heart failure rats [3]": {"system": "heart failure rats", "experiment": "Body weight and organ weight index (heart weight index, brain/heart weight ratio) in myocardial infarction heart failure rats", "set-up": "Brain weight/heart weight: unit not given here", "details": "3 mpk p.o. qd for 4 weeks; endpoint; Mean ± SEM, N = 7", "experimental": "as §1, with “mL/kg. […]” for “mL/kg.”\nOne week after the modeling of animals, the isoflurane was used for anesthetizing the rats, the Vevo small animal ultrasonic imaging system was used for checking the function of the left ventricle of the model rats, and successful modeling was determined if the LVFE % was reduced by 30%. […]"}}}
{"compound": "C[C@@](COc1ccc(C#N)cc1)(OC(=O)c1cccnc1)C(=O)Nc1ccc(C#N)c(C(F)(F)F)c1", "note": "[EG017, (S)-1-((4-cyano-3-(trifluoromethyl)phenyl)amino)-3-(4-cyanophenoxy)-2-methyl-1-oxopropan-2-yl nicotinate]", "values": [{"measurement": "DBP", "setting": "heart failure rats [1]", "value": "76.1 ± 3.02", "unit": "mmHg"}, {"measurement": "Dp/dt max", "setting": "heart failure rats [1]", "value": "6630 ± 432"}, {"measurement": "Dp/dt min", "setting": "heart failure rats [1]", "value": "−6603 ± 707"}, {"measurement": "HR", "setting": "heart failure rats [1]", "value": "352 ± 23.3", "unit": "BPM"}, {"measurement": "LVSP", "setting": "heart failure rats [1]", "value": "98.5 ± 3.89& mmHg"}, {"measurement": "MBP", "setting": "heart failure rats [1]", "value": "88.3 ± 3.39", "unit": "mmHg"}, {"measurement": "SBP", "setting": "heart failure rats [1]", "value": "98.7 ± 3.62", "unit": "mmHg"}, {"measurement": "CO", "setting": "heart failure rats [2]", "value": "85.6 ± 9.55", "unit": "mL/min"}, {"measurement": "EDV", "setting": "heart failure rats [2]", "value": "477 ± 48.2", "unit": "µL"}, {"measurement": "ESV", "setting": "heart failure rats [2]", "value": "238 ± 52.0", "unit": "µL"}, {"measurement": "FS", "setting": "heart failure rats [2]", "value": "29.0 ± 3.51", "unit": "%"}, {"measurement": "LV mass", "setting": "heart failure rats [2]", "value": "1497 ± 145^ mg"}, {"measurement": "LVEF", "setting": "heart failure rats [2]", "value": "52.7 ± 5.61", "unit": "%"}, {"measurement": "LVPWTd", "setting": "heart failure rats [2]", "value": "2.17 ± 0.17", "unit": "mm"}, {"measurement": "LVPWTs", "setting": "heart failure rats [2]", "value": "2.66 ± 0.22", "unit": "mm"}, {"measurement": "SV", "setting": "heart failure rats [2]", "value": "238 ± 21.1", "unit": "µL"}, {"measurement": "Brain weight/heart weight", "setting": "heart failure rats [3]", "value": "78.3 ± 4.31"}, {"measurement": "Heart weight index", "setting": "heart failure rats [3]", "value": "0.376 ± 0.025", "unit": "g/100 g body weight"}]}
